Results published in the supplement of paper PMC4862054.

What was measured:
Experiment in all cases: normalised response (% of control), CellTiter-Glo; higher = more viable cells (100 = DMSO, 0 = benzethonium chloride kill control)
Conditions in all cases: incubation time: 72 h
MDA-MB-436 = tested on: MDA-MB-436
How it was run: (§1)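 In 384-well plates holding compound at 5 concentrations in 10-fold steps over a 10,000-fold range specific to each compound, breast cancer cell lines were seeded as 20 µl suspension and incubated 72 h. CellTox Green fluorescence was measured at 485/520 nm, after which CellTiter-Glo luminescence was measured following 10 min at room temperature. Plate signals were normalised to 0.1 % DMSO (100) and a positive kill control (0), and each value is the normalised signal at a single concentration.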

MFM-223 = tested on: MFM-223
How it was run: as §1

MDA-MB-231 = tested on: MDA-MB-231
How it was run: as §1

CAL-85-1 = tested on: CAL-85-1
How it was run: as §1

SK-BR-3 = tested on: SK-BR-3
How it was run: as §1

CAL-120 = tested on: CAL-120
How it was run: as §1

DU-4475 = tested on: DU-4475
How it was run: as §1

BT-549 = tested on: BT-549
How it was run: as §1

CAL-51 = tested on: CAL-51
How it was run: as §1

CAL-148 = tested on: CAL-148
How it was run: as §1

MDA-MB-453 = tested on: MDA-MB-453
How it was run: as §1

HDQ-P1 = tested on: HDQ-P1
How it was run: as §1

MCF-10A = tested on: MCF-10A
How it was run: as §1

HCC1599 = tested on: HCC1599
How it was run: as §1

HCC1937 = tested on: HCC1937
How it was run: as §1

HCC1143 = tested on: HCC1143
How it was run: as §1

Hs578T = tested on: Hs578T
How it was run: as §1

MDA-MB-468 = tested on: MDA-MB-468
How it was run: as §1

BT-474 = tested on: BT-474
How it was run: as §1

SMILES | normalised response (MDA-MB-436) [%] | normalised response (MFM-223) [%] | normalised response (MDA-MB-231) [%] | normalised response (CAL-85-1) [%] | normalised response (SK-BR-3) [%] | normalised response (CAL-120) [%] | normalised response (DU-4475) [%] | normalised response (BT-549) [%] | normalised response (CAL-51) [%] | normalised response (CAL-148) [%] | normalised response (MDA-MB-453) [%] | normalised response (HDQ-P1) [%] | normalised response (MCF-10A) [%] | normalised response (HCC1599) [%] | normalised response (HCC1937) [%] | normalised response (HCC1143) [%] | normalised response (Hs578T) [%] | normalised response (MDA-MB-468) [%] | normalised response (BT-474) [%]
Cc1c(C(=O)Nc2ccc(N3C[C@@H](C)O[C@@H](C)C3)nc2)cccc1-c1ccc(OC(F)(F)F)cc1 [Erismodegib] (1 nM) | 85.3 | 96.7 | 99 | 97.8 | 91.3 | 99.2 | 97.5 | 93.8 | 88.2 | 91.7 | 96.1 | 94.1 | 84.4 | 102 | 96.1 | 93.8 | 91.6 | 99.8 | 93.9
Cc1c(C(=O)Nc2ccc(N3C[C@@H](C)O[C@@H](C)C3)nc2)cccc1-c1ccc(OC(F)(F)F)cc1 [Erismodegib] (10 nM) | 91.9 | 91.9 | 99.2 | 95.2 | 69.9 | 91.7 | 101 | 99.6 | 127 | 94.6 | 81.8 | 95.5 | 86 | 104 | 96.3 | 93.4 | 101 | 86.6 | 92.9
CC(C)C(=O)Nc1ccc([N+](=O)[O-])c(C(F)(F)F)c1 [Flutamide] (10 nM) | 99.8 | 99.6 | 95.7 | 96.2 | 124 | 97.6 | 102 | 96.4 | 126 | 92.1 | 109 | 98.4 | 103 | 105 | 102 | 98.6 | 98.6 | 96 | 101
COc1cc2c(Oc3ccc(NC(=O)C4(C(=O)Nc5ccc(F)cc5)CC4)cc3F)ccnc2cc1OCCCN1CCOCC1 [Foretinib] (1 nM) | 99.2 | 102 | 99 | 94.8 | 97.6 | 99.7 | 100 | 98.4 | 106 | 101 | 108 | 97.7 | 102 | 94.3 | 95 | 102 | 97.4 | 99.4 | 104
COc1cc(Nc2ncc(F)c(Nc3ccc4c(n3)N(COP(=O)(O)O)C(=O)C(C)(C)O4)n2)cc(OC)c1OC [Fostamatinib] (0.25 nM) | 110 | 94.9 | 101 | 99.3 | 98 | 107 | 96.2 | 107 | 83.5 | 93.3 | 99.4 | 99.1 | 103 | 111 | 106 | 100 | 99.2 | 97.4 | 97.2
COc1cc(Nc2ncc(F)c(Nc3ccc4c(n3)N(COP(=O)(O)O)C(=O)C(C)(C)O4)n2)cc(OC)c1OC [Fostamatinib] (2.5 nM) | 92.9 | 98.8 | 96.2 | 99.7 | 92.7 | 105 | 93.8 | 102 | 73.5 | 97.7 | 104 | 110 | 97.7 | 87.7 | 99.6 | 102 | 102 | 96.7 | 103
CC(C)NC[C@@H](C(=O)N1CCN(c2ncnc3c2[C@H](C)C[C@H]3O)CC1)c1ccc(Cl)cc1 [GDC-0068] (1 nM) | 96.9 | 98.9 | 103 | 98.9 | 103 | 95.9 | 99.9 | 97.7 | 71 | 95.3 | 102 | 99.8 | 106 | 100 | 102 | 97.3 | 101 | 94.1 | 99.3
CCCc1cc(C)[nH]c(=O)c1CNC(=O)c1cc(-c2ccnc(N3CCN(C)CC3)c2)cc2c1cnn2C(C)C [GSK343] (1 nM) | 97.3 | 94.7 | 92.5 | 102 | 91.9 | 95.5 | 92.7 | 100 | 116 | 84.4 | 99.5 | 98 | 99.5 | 80.2 | 93.4 | 87.7 | 105 | 89 | 94.2
CCCc1cc(C)[nH]c(=O)c1CNC(=O)c1cc(-c2ccnc(N3CCN(C)CC3)c2)cc2c1cnn2C(C)C [GSK343] (10 nM) | 91.1 | 93.3 | 91.7 | 91.6 | 109 | 97 | 94 | 96.5 | 81.4 | 80.2 | 94.2 | 97.6 | 103 | 103 | 103 | 104 | 101 | 87.4 | 97.2
NC(=O)NO [Hydroxyurea] (100 nM) | 96.3 | 108 | 98.5 | 99.8 | 93.5 | 97.8 | 101 | 97.7 | 89.7 | 102 | 112 | 97.3 | 104 | 94.1 | 96 | 104 | 102 | 101 | 99.5
COc1cc2c(cc1-c1c(C)noc1C)ncc1[nH]c(=O)n([C@H](C)c3ccccn3)c12 [I-BET151] (1 nM) | 98.5 | 97.8 | 99.5 | 103 | 97.8 | 101 | 103 | 99.7 | 81.1 | 104 | 102 | 106 | 109 | 103 | 96.6 | 105 | 101 | 95.9 | 96.7
CC(C)n1nc(-c2ccc3oc(N)nc3c2)c2c(N)ncnc21 [INK128] (0.1 nM) | 79.1 | 89.8 | 92.1 | 96.6 | 96 | 91 | 90.2 | 93.9 | 106 | 92.2 | 101 | 87.9 | 90.6 | 94.7 | 89.1 | 86.4 | 96.3 | 93.3 | 90.8
CC(C)n1nc(-c2ccc3oc(N)nc3c2)c2c(N)ncnc21 [INK128] (1 nM) | 96.5 | 90.1 | 95.9 | 96.7 | 85.9 | 92.2 | 94.1 | 89 | 116 | 93.2 | 88.3 | 95.8 | 96.2 | 100 | 96.9 | 94.5 | 98.9 | 93.6 | 88.9
O=NN(CCCl)C(=O)NC1CCCCC1 [Lomustine] (10 nM) | 95.2 | 104 | 99.4 | 95 | 90.8 | 98.3 | 102 | 98.3 | 120 | 98.6 | 106 | 102 | 107 | 83.8 | 102 | 103 | 108 | 92.5 | 105
O=C(O)CC[C@H]1CC[C@@](c2cc(F)ccc2F)(S(=O)(=O)c2ccc(Cl)cc2)CC1 [MK-0752] (1 nM) | 101 | 112 | 102 | 102 | 102 | 102 | 104 | 93 | 87.3 | 107 | 111 | 95.6 | 113 | 97.5 | 98.7 | 99.5 | 104 | 98.5 | 103
NC1(c2ccc(-c3nc4ccn5c(=O)[nH]nc5c4cc3-c3ccccc3)cc2)CCC1 [MK-2206] (1 nM) | 104 | 109 | 103 | 95.9 | 112 | 99.2 | 104 | 92.9 | 80.6 | 112 | 100 | 96.5 | 106 | 105 | 92.6 | 103 | 96.5 | 101 | 111
NC(=O)c1cccc2cn(-c3ccc([C@@H]4CCCNC4)cc3)nc12 [MK-4827] (10 nM) | 107 | 104 | 101 | 106 | 83.4 | 107 | 104 | 101 | 125 | 108 | 105 | 93.7 | 114 | 104 | 96.9 | 107 | 98.4 | 98.6 | 110
N[C@@H](Cc1ccc(N(CCCl)CCCl)cc1)C(=O)O [Melphalan] (1.25 nM) | 109 | 95.1 | 100 | 96.5 | 96.3 | 100 | 95.5 | 97.8 | 114 | 93.2 | 93.3 | 106 | 104 | 116 | 103 | 98.7 | 109 | 91.7 | 98.7
N[C@@H](Cc1ccc(N(CCCl)CCCl)cc1)C(=O)O [Melphalan] (12.5 nM) | 103 | 99.5 | 102 | 99.4 | 95 | 101 | 99.3 | 100 | 75.2 | 96.2 | 104 | 103 | 101 | 133 | 102 | 95.3 | 104 | 95.4 | 103
O=C(c1cc(Cc2n[nH]c(=O)c3ccccc23)ccc1F)N1CCN(C(=O)C2CC2)CC1 [Olaparib] (10 nM) | 91.8 | 93 | 90.2 | 108 | 100 | 93.2 | 102 | 98.2 | 110 | 98.9 | 97.8 | 96.2 | 99.5 | 113 | 101 | 95.6 | 98.6 | 101 | 97.1
